Results from patent US11981658B2, “Substituted aminopyridine compounds as EGFR inhibitors” (YUHAN CORPORATION, priority 2021, dated 2024).
Like-named read-outs stand apart in the source and are kept apart here.

What was measured:
[1] = target: EGFR L858R/C797S (Homo sapiens, UniProt P00533, C797S/L858R); test: Biochemical EGFR kinase inhibition assay (Lance Ultra TR-FRET), double mutant L858R/C797S
Procedure, shortened: (§1)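 Kinase activity is measured by TR-FRET phosphopeptide detection. Compounds span 0.003 μM to 10 μM; the 1 h reaction at room temperature is quenched with EDTA, then labelled antibody (2 nM) is incubated 60 min before reading.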

[2] = target: EGFR wildtype (WT) (Homo sapiens, UniProt P00533); test: Biochemical EGFR kinase inhibition assay (Lance Ultra TR-FRET), wildtype
Procedure, shortened: as §1

[3] = target: EGFR Del19/C797S (Homo sapiens, UniProt P00533, C797S/DEL746-750); test: Biochemical EGFR kinase inhibition assay (Lance Ultra TR-FRET), double mutant del19/C797S
Sequence of EGFR Del19/C797S (P00533 with tags, fused parts or gaps DEL746-750/C797S): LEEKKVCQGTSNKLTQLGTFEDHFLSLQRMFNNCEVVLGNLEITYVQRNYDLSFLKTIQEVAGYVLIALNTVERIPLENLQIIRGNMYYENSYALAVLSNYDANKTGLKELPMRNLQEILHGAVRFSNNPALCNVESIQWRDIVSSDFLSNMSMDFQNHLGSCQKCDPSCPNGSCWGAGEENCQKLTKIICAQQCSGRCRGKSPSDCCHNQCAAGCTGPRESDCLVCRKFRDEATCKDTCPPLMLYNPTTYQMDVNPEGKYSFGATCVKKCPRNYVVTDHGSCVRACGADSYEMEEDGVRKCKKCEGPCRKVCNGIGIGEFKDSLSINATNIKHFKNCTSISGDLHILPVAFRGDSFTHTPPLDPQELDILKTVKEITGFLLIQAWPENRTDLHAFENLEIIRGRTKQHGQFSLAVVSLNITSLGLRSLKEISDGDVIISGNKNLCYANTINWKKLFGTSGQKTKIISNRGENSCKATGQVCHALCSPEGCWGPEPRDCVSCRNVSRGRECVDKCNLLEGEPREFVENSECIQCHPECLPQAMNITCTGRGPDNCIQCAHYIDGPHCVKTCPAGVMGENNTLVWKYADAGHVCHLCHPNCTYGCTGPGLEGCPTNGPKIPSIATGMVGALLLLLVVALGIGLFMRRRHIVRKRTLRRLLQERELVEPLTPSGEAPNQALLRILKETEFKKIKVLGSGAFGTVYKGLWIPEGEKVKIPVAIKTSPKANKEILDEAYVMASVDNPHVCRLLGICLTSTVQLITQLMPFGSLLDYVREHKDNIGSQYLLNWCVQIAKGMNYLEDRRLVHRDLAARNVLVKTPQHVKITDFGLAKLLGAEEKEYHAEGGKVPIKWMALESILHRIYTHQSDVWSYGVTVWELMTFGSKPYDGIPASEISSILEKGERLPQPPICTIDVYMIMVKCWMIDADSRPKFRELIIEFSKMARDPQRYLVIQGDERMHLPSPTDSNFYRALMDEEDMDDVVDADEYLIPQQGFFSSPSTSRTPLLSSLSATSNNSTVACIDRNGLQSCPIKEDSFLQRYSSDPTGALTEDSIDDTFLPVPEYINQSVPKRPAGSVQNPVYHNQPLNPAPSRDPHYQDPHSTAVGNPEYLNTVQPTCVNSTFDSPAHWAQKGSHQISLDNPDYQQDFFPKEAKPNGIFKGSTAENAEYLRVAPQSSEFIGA
Procedure, shortened: as §1

[4] = target: EGFR Del19/T790M/C797S (Homo sapiens, UniProt P00533, C797S/DEL746-750/T790M); test: Biochemical EGFR kinase inhibition assay (Lance Ultra TR-FRET), triple mutant del19/T790M/C797S
Sequence of EGFR Del19/T790M/C797S (P00533 with tags, fused parts or gaps DEL746-750/T790M/C797S): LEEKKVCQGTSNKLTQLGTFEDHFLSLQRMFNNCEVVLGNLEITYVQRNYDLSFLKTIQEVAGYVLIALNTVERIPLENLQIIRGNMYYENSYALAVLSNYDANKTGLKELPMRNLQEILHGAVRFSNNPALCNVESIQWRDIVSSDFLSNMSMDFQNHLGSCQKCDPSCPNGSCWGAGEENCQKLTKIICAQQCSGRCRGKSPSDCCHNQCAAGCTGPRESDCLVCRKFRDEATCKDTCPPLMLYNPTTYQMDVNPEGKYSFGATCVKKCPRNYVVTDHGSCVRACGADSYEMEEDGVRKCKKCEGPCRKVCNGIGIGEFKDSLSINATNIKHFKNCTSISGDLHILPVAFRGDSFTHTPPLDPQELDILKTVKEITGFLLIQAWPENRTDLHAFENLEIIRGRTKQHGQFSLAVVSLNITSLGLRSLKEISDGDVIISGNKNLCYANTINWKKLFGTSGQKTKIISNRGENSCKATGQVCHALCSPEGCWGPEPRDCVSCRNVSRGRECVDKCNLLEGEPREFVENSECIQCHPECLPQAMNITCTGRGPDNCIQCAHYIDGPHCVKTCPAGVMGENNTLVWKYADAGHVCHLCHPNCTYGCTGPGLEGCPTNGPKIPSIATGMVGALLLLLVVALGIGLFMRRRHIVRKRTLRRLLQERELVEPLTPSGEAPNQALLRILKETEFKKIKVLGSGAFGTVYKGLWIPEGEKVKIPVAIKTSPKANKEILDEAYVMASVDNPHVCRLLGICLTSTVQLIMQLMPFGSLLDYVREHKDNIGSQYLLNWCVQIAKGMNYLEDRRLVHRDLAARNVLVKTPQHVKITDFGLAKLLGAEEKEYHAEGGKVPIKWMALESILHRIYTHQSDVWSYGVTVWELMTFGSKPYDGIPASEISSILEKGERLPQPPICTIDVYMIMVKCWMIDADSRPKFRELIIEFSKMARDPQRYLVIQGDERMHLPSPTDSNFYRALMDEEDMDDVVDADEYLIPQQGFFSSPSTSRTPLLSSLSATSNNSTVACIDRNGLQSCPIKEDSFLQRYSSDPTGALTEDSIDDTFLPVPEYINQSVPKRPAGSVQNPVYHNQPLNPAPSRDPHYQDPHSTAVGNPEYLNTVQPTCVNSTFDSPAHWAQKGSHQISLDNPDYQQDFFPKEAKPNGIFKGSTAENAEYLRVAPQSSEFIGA
Procedure, shortened: as §1

[5] = target: EGFR L858R/T790M/C797S (Homo sapiens, UniProt P00533, C797S/L858R/T790M); test: Biochemical EGFR kinase inhibition assay (Lance Ultra TR-FRET), triple mutant L858R/T790M/C797S
Sequence of EGFR L858R/T790M/C797S (P00533 25-1210 T790M/C797S/L858R): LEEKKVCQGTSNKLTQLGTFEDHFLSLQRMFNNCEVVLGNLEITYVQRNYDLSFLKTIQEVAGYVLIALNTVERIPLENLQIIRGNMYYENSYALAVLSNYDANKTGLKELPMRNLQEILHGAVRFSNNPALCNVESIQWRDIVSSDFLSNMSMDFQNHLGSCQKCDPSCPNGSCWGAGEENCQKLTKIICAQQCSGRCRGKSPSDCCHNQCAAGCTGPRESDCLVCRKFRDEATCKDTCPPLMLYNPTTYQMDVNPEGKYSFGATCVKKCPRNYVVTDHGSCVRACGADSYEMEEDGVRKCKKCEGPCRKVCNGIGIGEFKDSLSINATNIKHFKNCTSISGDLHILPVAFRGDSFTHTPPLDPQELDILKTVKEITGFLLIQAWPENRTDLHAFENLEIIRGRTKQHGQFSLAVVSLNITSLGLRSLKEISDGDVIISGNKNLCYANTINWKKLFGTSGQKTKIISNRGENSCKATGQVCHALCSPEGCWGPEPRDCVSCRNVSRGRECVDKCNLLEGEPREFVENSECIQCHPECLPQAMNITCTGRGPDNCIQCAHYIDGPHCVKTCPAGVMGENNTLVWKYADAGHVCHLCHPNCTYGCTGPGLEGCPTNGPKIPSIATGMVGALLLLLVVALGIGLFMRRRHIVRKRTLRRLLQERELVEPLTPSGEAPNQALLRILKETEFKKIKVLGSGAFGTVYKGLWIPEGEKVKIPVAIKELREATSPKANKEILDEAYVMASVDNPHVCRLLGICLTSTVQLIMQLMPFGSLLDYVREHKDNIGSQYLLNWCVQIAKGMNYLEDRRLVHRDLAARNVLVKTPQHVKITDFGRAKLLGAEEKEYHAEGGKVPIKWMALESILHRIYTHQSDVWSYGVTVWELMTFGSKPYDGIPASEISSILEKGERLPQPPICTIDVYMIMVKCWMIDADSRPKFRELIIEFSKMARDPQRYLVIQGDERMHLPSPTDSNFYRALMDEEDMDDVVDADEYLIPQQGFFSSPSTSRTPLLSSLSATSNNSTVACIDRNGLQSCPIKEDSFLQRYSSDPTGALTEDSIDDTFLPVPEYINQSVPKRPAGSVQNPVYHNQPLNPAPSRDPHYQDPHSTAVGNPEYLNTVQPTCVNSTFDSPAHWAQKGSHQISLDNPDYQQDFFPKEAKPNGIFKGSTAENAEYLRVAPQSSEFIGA
Procedure, shortened: as §1

[6] = IC50 L858R/C797S (nM), 100 μM ATP
[7] = Km ATP, read-out: IC50 L858R/C797S (nM) Km ATP
[8] = Km ATP, read-out: IC50 WT (nM) Km ATP
[9] = IC50 Del19/C797S (nM), 100 μM ATP
[10] = Km ATP, read-out: IC50 Del19/C797S (nM) Km ATP
[11] = IC50 Del19/T790M/C797S (nM), 100 μM ATP
[12] = Km ATP, read-out: IC50 Del19/T790M/C797S (nM) Km ATP
[13] = IC50 L858R/T790M/C797S (nM), 100 μM ATP
[14] = Km ATP, read-out: IC50 L858R/T790M/C797S (nM) Km ATP

Sequence of EGFR L858R/C797S (P00533 25-1210 C797S/L858R): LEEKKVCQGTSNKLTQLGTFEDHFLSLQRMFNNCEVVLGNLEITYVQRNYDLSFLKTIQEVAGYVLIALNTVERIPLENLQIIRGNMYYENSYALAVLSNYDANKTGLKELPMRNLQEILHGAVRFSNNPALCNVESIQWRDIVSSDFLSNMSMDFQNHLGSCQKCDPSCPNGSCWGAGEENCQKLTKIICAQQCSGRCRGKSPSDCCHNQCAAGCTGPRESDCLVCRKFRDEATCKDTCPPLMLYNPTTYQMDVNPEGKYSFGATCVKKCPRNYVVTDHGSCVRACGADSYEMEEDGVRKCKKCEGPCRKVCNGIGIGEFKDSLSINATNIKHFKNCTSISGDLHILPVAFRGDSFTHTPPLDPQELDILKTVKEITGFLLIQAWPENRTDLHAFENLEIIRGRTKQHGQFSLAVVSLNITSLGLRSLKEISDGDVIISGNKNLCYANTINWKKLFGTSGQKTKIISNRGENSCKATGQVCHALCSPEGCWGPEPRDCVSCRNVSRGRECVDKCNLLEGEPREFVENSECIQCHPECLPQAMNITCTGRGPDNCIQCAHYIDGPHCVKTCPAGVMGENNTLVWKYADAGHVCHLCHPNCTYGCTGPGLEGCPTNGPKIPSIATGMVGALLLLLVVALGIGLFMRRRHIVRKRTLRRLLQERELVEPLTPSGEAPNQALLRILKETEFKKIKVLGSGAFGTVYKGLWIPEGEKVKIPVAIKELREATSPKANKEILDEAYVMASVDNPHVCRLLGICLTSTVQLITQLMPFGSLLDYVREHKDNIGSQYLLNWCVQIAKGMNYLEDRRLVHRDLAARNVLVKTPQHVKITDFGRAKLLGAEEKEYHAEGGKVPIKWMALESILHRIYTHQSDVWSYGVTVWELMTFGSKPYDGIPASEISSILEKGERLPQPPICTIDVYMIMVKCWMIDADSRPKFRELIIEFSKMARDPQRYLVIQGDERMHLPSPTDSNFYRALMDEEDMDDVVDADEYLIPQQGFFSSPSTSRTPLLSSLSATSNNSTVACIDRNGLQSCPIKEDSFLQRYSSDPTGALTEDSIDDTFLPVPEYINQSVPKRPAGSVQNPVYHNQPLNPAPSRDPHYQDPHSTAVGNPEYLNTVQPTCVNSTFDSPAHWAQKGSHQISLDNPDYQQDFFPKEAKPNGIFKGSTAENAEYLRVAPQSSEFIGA

Compound	IC50 [1, 6] [nM]	IC50 [1, 7] [nM]	IC50 ([2]; IC50 WT (nM), 100 μM ATP) [nM]	IC50 [2, 8] [nM]	IC50 [3, 9] [nM]	IC50 [3, 10] [nM]	IC50 [4, 11] [nM]	IC50 [4, 12] [nM]	IC50 [5, 13] [nM]	IC50 [5, 14] [nM]
CN(C)CCCn1cc(C#Cc2cnc(Nc3ccnc(-c4cnn(S(=O)(=O)C5CC5)c4)n3)cc2N2CCCC(CO)C2)cn1 (stereo not shown) [Example 122, (1-(2-((2-(1-(Cyclopropylsulfonyl)-1H-pyrazol-4-yl)pyrimidin-4-yl)amino)-5-((1-(3-(dimethylamino)propyl)-1H-pyrazol-4-yl)ethynyl)pyridin-4-yl)piperidin-3-yl)methanol]	11.8	0.5	2780	7.8	0.8	0.6	0.5	0.4	0.5	0.2
CN(C)CCCn1cc(C#Cc2cnc(Nc3ccnc(-c4cnn(S(=O)(=O)C5CC5)c4)n3)cc2N[C@H]2CC[C@@H](O)CC2)cn1 [Example 123, (1s,4s)-4-((2-((2-(1-(Cyclopropylsulfonyl)-1H-pyrazol-4-yl)pyrimidin-4-yl)amino)-5-((1-(3-(dimethylamino)propyl)-1H-pyrazol-4-yl)ethynyl)pyridin-4-yl)amino)cyclohexan-1-ol]	4.3	0.3	1080	3.6	0.6	0.3	0.4	0.4	0.4	0.1
Cn1cc(C#Cc2cnc(Nc3ccnc(-c4cnn(S(=O)(=O)C5CC5)c4)n3)cc2N2CCC(N3CC(F)(F)C3)CC2)cn1 [Example 128, 2-(1-(Cyclopropylsulfonyl)-1H-pyrazol-4-yl)-N-(4-(4-(3,3-difluoroazetidin-1-yl)piperidin-1-yl)-5-((1-methyl-1H-pyrazol-4-yl)ethynyl)pyridin-2-yl)pyrimidin-4-amine]	73		> 10000		29.5		7.1		4.8	
CN(C)CCNC1CCN(c2cc(Nc3ccnc(-c4cnn(S(=O)(=O)C5CC5)c4)n3)ncc2C#Cc2cnn(C)c2)CC1 [Example 133, N^1-(1-(2-((2-(1-(Cyclopropylsulfonyl)-1H-pyrazol-4-yl)pyrimidin-4-yl)amino)-5-((1-methyl-1H-pyrazol-4-yl)ethynyl)pyridin-4-yl)piperidin-4-yl)-N^2,N^2-dimethylethane-1,2-diamine]	3.5		3840		2.4		0.3		0.4	
CN(C)C(C)(C)CNC1CCN(c2cc(Nc3ccnc(-c4cnn(S(=O)(=O)C5CC5)c4)n3)ncc2C#Cc2cnn(C)c2)CC1 [Example 134, N^4-(1-(2-((2-(1-(Cyclopropylsulfonyl)-1H-pyrazol-4-yl)pyrimidin-4-yl)amino)-5-((1-methyl-1H-pyrazol-4-yl)ethynyl)pyridin-4-yl)piperidin-4-yl)-N^2,N^2,2-trimethylpropane-1,2-diamine]	121	5.6	> 10000	40.5	2.3	1.5	0.4	0.4	0.9	0.1
O=S(=O)(C1CC1)n1cc(-c2nccc(Nc3cc(N4CCC(NCCF)CC4)c(C#Cc4cnn(C5CCOCC5)c4)cn3)n2)cn1 [Example 136, 2-(1-(Cyclopropylsulfonyl)-1H-pyrazol-4-yl)-N-(4-(4-((2-fluoroethyl)amino)piperidin-1-yl)-5-((1-(tetrahydro-2H-pyran-4-yl)-1H-pyrazol-4-yl)ethynyl)pyridin-2-yl)pyrimidin-4-amine]	30.5	2.7	> 10000	60.2	4.9	3.3	0.3	0.3	1.2	0.3
O=S(=O)(C1CC1)n1cc(-c2nccc(Nc3cc(N4CCC(NCCO)CC4)c(C#Cc4cnn(C5CCOCC5)c4)cn3)n2)cn1 [Example 137, 2-((1-(2-((2-(1-(Cyclopropylsulfonyl)-1H-pyrazol-4-yl)pyrimidin-4-yl)amino)-5-((1-(tetrahydro-2H-pyran-4-yl)-1H-pyrazol-4-yl)ethynyl)pyridin-4-yl)piperidin-4-yl)amino)ethan-1-ol]	74.2	5	> 10000	174	11.7	8.8	0.4	0.4	2	0.4

Continued, values first:

IC50 [1, 6] [nM]	IC50 [1, 7] [nM]	IC50 ([2]; IC50 WT (nM), 100 μM ATP) [nM]	IC50 [2, 8] [nM]	IC50 [3, 9] [nM]	IC50 [3, 10] [nM]	IC50 [4, 11] [nM]	IC50 [4, 12] [nM]	IC50 [5, 13] [nM]	IC50 [5, 14] [nM]	Compound
154		> 10000		26.3		3		2.6		Cn1cc(C#Cc2cnc(Nc3ccnc(-c4cnn(S(=O)(=O)C5CC5)c4)n3)cc2N2CCC(NCC3CC3)CC2)cn1 [Example 124, N-(4-(4-((Cyclopropylmethyl)amino)piperidin-1-yl)-5-((1-methyl-1H-pyrazol-4-yl)ethynyl)pyridin-2-yl)-2-(1-(cyclopropylsulfonyl)-1H-pyrazol-4-yl)pyrimidin-4-amine]
330		> 10000		34.2		5.6		5.6		CC(C)CCNC1CCN(c2cc(Nc3ccnc(-c4cnn(S(=O)(=O)C5CC5)c4)n3)ncc2C#Cc2cnn(C)c2)CC1 [Example 125, 2-(1-(Cyclopropylsulfonyl)-1H-pyrazol-4-yl)-N-(4-(4-(isopentylamino)piperidin-1-yl)-5-((1-methyl-1H-pyrazol-4-yl)ethynyl)pyridin-2-yl)pyrimidin-4-amine]
11.5	1.8	> 10000	35	1.6	1.4	1.7	0.6	0.9	0.3	Cn1cc(C#Cc2cnc(Nc3ccnc(-c4cnn(S(=O)(=O)C5CC5)c4)n3)cc2N2CCC(NCC(F)F)CC2)cn1 [Example 126, 2-(1-(Cyclopropylsulfonyl)-1H-pyrazol-4-yl)-N-(4-(4-((2,2-difluoroethyl)amino)piperidin-1-yl)-5-((1-methyl-1H-pyrazol-4-yl)ethynyl)pyridin-2-yl)pyrimidin-4-amine]
45.7		> 10000		6.9		2.8		1.8		Cn1cc(C#Cc2cnc(Nc3ccnc(-c4cnn(S(=O)(=O)C5CC5)c4)n3)cc2N2CCC(NCCC(F)(F)F)CC2)cn1 [Example 127, 2-(1-(Cyclopropylsulfonyl)-1H-pyrazol-4-yl)-N-(5-((1-methyl-1H-pyrazol-4-yl)ethynyl)-4-(4-((3,3,3-trifluoropropyl)amino)piperidin-1-yl)pyridin-2-yl)pyrimidin-4-amine]
23.8		> 10000		4.4		0.5		0.8		Cn1cc(C#Cc2cnc(Nc3ccnc(-c4cnn(S(=O)(=O)C5CC5)c4)n3)cc2N2CCC(NCCF)CC2)cn1 [Example 129, 2-(1-(Cyclopropylsulfonyl)-1H-pyrazol-4-yl)-N-(4-(4-((2-fluoroethyl)amino)piperidin-1-yl)-5-((1-methyl-1H-pyrazol-4-yl)ethynyl)pyridin-2-yl)pyrimidin-4-amine]
68.7		> 10000		107		1.4		5.1		CNC1CCN(c2cc(Nc3ccnc(-c4cnn(S(=O)(=O)C5CC5)c4)n3)ncc2C#Cc2cnn(C)c2)CC1 [Example 130, 2-(1-(Cyclopropylsulfonyl)-1H-pyrazol-4-yl)-N-(5-((1-methyl-1H-pyrazol-4-yl)ethynyl)-4-(4-(methylamino)piperidin-1-yl)pyridin-2-yl)pyrimidin-4-amine]
35.6		> 10000		50.8		0.7		2.6		Cn1cc(C#Cc2cnc(Nc3ccnc(-c4cnn(S(=O)(=O)C5CC5)c4)n3)cc2N2CCC(NCCO)CC2)cn1 [Example 131, 2-((1-(2-((2-(1-(Cyclopropylsulfonyl)-1H-pyrazol-4-yl)pyrimidin-4-yl)amino)-5-((1-methyl-1H-pyrazol-4-yl)ethynyl)pyridin-4-yl)piperidin-4-yl)amino)ethan-1-ol]
46.4		> 10000		131		1.3		4.2		COCCNC1CCN(c2cc(Nc3ccnc(-c4cnn(S(=O)(=O)C5CC5)c4)n3)ncc2C#Cc2cnn(C)c2)CC1 [Example 132, 2-(1-(Cyclopropylsulfonyl)-1H-pyrazol-4-yl)-N-(4-(4-((2-methoxyethyl)amino)piperidin-1-yl)-5-((1-methyl-1H-pyrazol-4-yl)ethynyl)pyridin-2-yl)pyrimidin-4-amine]
40.6	4.1	> 10000	28.7	3	1.6	2.6	0.7	5.2	0.6	Cn1cc(C#Cc2cnc(Nc3ccnc(-c4cnn(S(=O)(=O)C5CC5)c4)n3)cc2N2CCC(NCC(F)(F)F)CC2)cn1 [Example 135, 2-(1-(Cyclopropylsulfonyl)-1H-pyrazol-4-yl)-N-(5-((1-methyl-1H-pyrazol-4-yl)ethynyl)-4-(4-((2,2,2-trifluoroethyl)amino)piperidin-1-yl)pyridin-2-yl)pyrimidin-4-amine]
